Test results: patent publication US20090312194A1, “SELECTION OF PERSONALIZED CANCER THERAPY REGIMENS USING INTERFERING RNA FUNCTIONAL SCREENING” (OREGON HEALTH & SCIENCE UNIVERSITY, priority 2008, published 2009)

Columns and labels:
[1] = tested on: HMC1.1 cells; experiment: MTS proliferation assay with small-molecule kinase inhibitors, HMC1.1 cells; assay type: cell-based, human; details: for IC50: 72 hours, MTS assay
Experimental: (§1) K562 cells were obtained from American Type Culture Collection (Manassas, Va.). CMK and HEL cells were obtained from the German National Resource Centre for Biological Material (DSMZ). […] For proliferation assays, cells were incubated for 72 hours in the presence of JAK Inhibitor I, JAK3 inhibitor III, AG-490, PP2, or Src Kinase Inhibitor I (EMD BIOSCIENCES®, San Diego, Calif.), and the number of viable cells was determined with the […] 96® AQueous One solution cell proliferation assay (PROMEGA®, Madison, Wis.). For HMC1.1 cell stimulation, cells were serum starved overnight in RPMI supplemented with 0.1% bovine serum albumin, L-glutamine, and penicillin/streptomycin. The following day, cells were stimulated for five minutes with 100 ng/ml recombinant stem cell factor (Peprotech, Rocky Hill, N.J.).
(§2) For tyrosine kinase siRNA library knockdown experiments, a Student's t test was carried out for each well in comparison to both single and pooled non-specific siRNA controls. The mean of the two-tailed p-value was determined for consideration of significance and data points with p-value less than 0.05 and mean value less than 70% of non-specific controls were considered significant. For cell proliferation assays, a Student's t test was carried out for each dose point comparing HMC1.1 to K562 cell viability.

[2] = tested on: BA/F3 cells expressing MPL 1886InsGG; experiment: Proliferation assay, factor-independent BA/F3 cells expressing MPL 1886InsGG; assay type: cell-based; details: factor-independent BA/F3 MPL 1886InsGG, three days
Experimental: (§3) 96 AQueous One solution cell proliferation assay (PROMEGA®). […] Total viable cells were determined every day for 1 week using PI exclusion on a Guava cell counter (GUAVA TECHNOLOGIES®). […] Ten days later, colonies were counted manually or using a GELCOUNT® automated colony counter (OXFORD OPTRONIX®, Oxford, UK).
(§4) MPL was then cloned into a Gateway compatible version of MSCV-IRES-GFP (MIG) by performing an LR recombination reaction. […] One milliliter of viral supernatant was mixed with polybrene (5 mg/ml), HEPES (7.5 mM), and 10^6 BA/F3 cells and placed in a centrifuge at 2500 RPM for 90 minutes at 30° C.

[3] = tested on: primary cells from patient samples; experiment: Cell viability assay (MTS) of primary patient cells with inhibitor dose gradients; assay type: cell-based, human; details: cells from CMML patient 07-079, three days
[4] = tested on: primary cells from patient samples; experiment: Colony assay of primary patient cells in methocult; assay type: cell-based, human; details: ten days
Experimental: For determination of factor-independent growth, parental BA/F3 cells as well as BA/F3 cells expressing […], or W515L were washed three times and 1 million cells were seeded into triplicate wells of a 6-well plate in R10. Total viable cells were determined every day for 1 week using PI exclusion on a Guava cell counter (GUAVA TECHNOLOGIES®). For colony assays, 200,000 primary cells from patient samples were incubated in the presence of dose gradients of AG490, SU11248, or PTK787 in methocult containing IL-3, GM-CSF, and SCF ([…] TECHNOLOGIES®). Ten days later, colonies were counted manually or using a GELCOUNT® automated colony counter (OXFORD OPTRONIX®, Oxford, UK). For siRNA functional screens on patient samples, a Student's t test was carried out for each well in comparison to both single and pooled non-specific siRNA controls. The mean of the two-tailed p-value was determined for consideration of significance. […] For cell proliferation, cell viability, and colony assays, a Student's t test was carried out for each dose or time point compared with the relevant control cell line or the no drug control.

[5] = tested on: HEL cells; experiment: MTS proliferation assay with kinase inhibitors, HEL cells; assay type: cell-based; details: HEL cells (JAK2 V617F), 72 hours
Experimental: as §1, §3

[6] = tested on: BA/F3 cells expressing MPL W515L; experiment: Proliferation assay, factor-independent BA/F3 cells expressing MPL W515L; assay type: cell-based; details: three days
Experimental: as §3, §4

[7] = tested on: Patient 07-079, ASM with associated CMML; experiment: Midostaurin treatment of patient 07-079; assay type: in vivo, human; details: patient 07-079, midostaurin 50 mg bid, briefly in combination with hydroxyurea
Experimental: White blood cell counts were monitored over 9 days. Normal white blood cell counts range from 4−12×10^3 per ml. […] Cells were then stimulated for 15 minutes with thrombopoietin (10 ng/ml) and cell lysates were subjected to immunoblot analysis for phospho or total-JAK2 as well as β-actin. […] Cell proliferation was determined after three days. Values represent the percent mean (normalized to untreated control wells)±s.e.m. (n=3).

[8] = tested on: K562 cells; experiment: MTS proliferation assay with small-molecule kinase inhibitors, K562 control cells; assay type: cell-based; details: concentrations up to and including 10 μM
Experimental: as §1, §2

[9] = biological target: MPL^1886InsGG (thrombopoietin receptor with two base-pair GG insertion in exon 12) (human) (UniProt P40238); experiment: cell-based or functional assay; details: scale: fold lower dose of thrombopoietin than MPL^WT

COc1cc2ncnc(Nc3ccc(Oc4ccccc4)cc3)c2cc1OC [SRC inhibitor I]
IC50 [1]: 5 µM

CC(C)(C)n1nc(-c2ccc(Cl)cc2)c2c(N)ncnc21 [PP2]
IC50 [1]: 1.5 µM

N#C/C(=C\c1ccc(O)c(O)c1)C(=O)NCc1ccccc1 [AG-490]
sensitivity to inhibitor [2]: strong sensitivity | sensitivity in cell viability assay [3]: Strong sensitivity | sensitivity in colony assay ([4]; cells from CMML patient 07-079, methocult): Strong sensitivity | IC50 [5]: 45 µM | sensitivity to inhibitor [6]: strong sensitivity | IC50 [1]: > 50 µM

CO[C@@H]1[C@H](N(C)C(=O)c2ccccc2)C[C@H]2O[C@]1(C)n1c3ccccc3c3c4c(c5c6ccccc6n2c5c31)C(=O)NC4 [midostaurin]
period to normalization of WBC counts [7]: 5 days

Clc1ccc(Nc2nnc(Cc3ccncc3)c3ccccc23)cc1 [PTK787]
colony formation ([4]; cells from AML patient 07-008, methocult with IL-3, GM-CSF, SCF): blocked by each drug at low nanomolar concentrations

JAK inhibitor I
sensitivity to inhibitor [8]: resistant | IC50 [1]: 5 µM | viability in combination with PP2 ([1]; JAK inhibitor I dose range plus 1.5 μM PP2, compared with JAK inhibitor alone): lower viability readings at all dose points | reduction of viability and proliferation ([1]; maximal reduction despite increasing concentrations): ~50%

recombinant thrombopoietin (Peprotech) (ligand)
phosphorylation of JAK2, STAT3, STAT5, ERK and AKT (immunoblot) after thrombopoietin stimulation of BA/F3 cells [9]: 10
